The source of these data is publication PMC7665192, “A natriuretic peptide from Arabidopsis thaliana (AtPNP-A) can modulate catalase 2 activity” (Scientific Reports, 2020).

Positions of bridges follow the written chain, without caps; N, C: chain ends. Residues, ends and D or L forms follow the SMILES beside them. *: point of attachment. Biotin = O=C1N[C@H]2[C@H](CS[C@H]2CCCCC(=O)*)N1

The test system of one assay is CAT2. The assay is described as follows: Protein-peptide cross-linking, affinity-based isolation and LC–MS/MS. The format is binding, Arabidopsis thaliana. The conditions noted are these: biotinylated pAtPNP-A, cross-linking in A. thaliana mesophyll cell protoplasts; data set published in ref 44. How it is done:
Cross-linking experiments followed by affinity-based isolation and LC-MS/MS identification of […] interactors were performed on A. thaliana (Col-0) wild type (WT) mesophyll cell protoplasts (MCPs) as described in[44].

For another assay, the system named is cGMP. The conditions noted are these: cited from earlier work. The source says: Similarly, identification of novel receptors targeted by an increasing number of peptidic plant hormones discovered in the last few decades[8],[9] is anticipated. One of those, the plant natriuretic peptides (PNPs), are a group of systemically mobile signals[10] that have a role in the maintenance of salt and water balance[11],[12]. An A. thaliana PNP, termed AtPNP-A (At2g18660; Q9ZV52), has been implicated in several physiological processes ranging from the regulation of stomatal aperture, osmoticum-dependent volume changes[13],[14] and modulation of developmental stage- and tissue-specif ... || A PNP_CAT interaction in plant responses to infecting pathogens is not surprising. CATs commonly function to down-regulate ROS during ABA-induced stomatal closure, and ABA-induced stomatal closure can be inhibited by removal of H2O2 via CAT2[73],[74]. […] Therefore, it is tempting to speculate that AtPNP-A modulates the effect of ABA on stomatal aperture through the interaction w ...

On to `CC(C)C[C@@H]1NC(=O)[C@H](CC(N)=O)NC(=O)[C@H](CC(N)=O)NC(=O)[C@H](CCCCN)NC(=O)[C@H](C(C)C)NC(=O)CNC(=O)[C@H](C(C)C)NC(=O)[C@H](C(C)C)NC(=O)[C@H](CC(C)C)NC(=O)[C@H]([C@@H](C)O)NC(=O)[C@H](CCC(=O)O)NC(=O)[C@H](CCCNC(=N)N)NC(=O)[C@H](CCC(N)=O)NC(=O)[C@H]([C@@H](C)O)NC(=O)CNC(=O)[C@H](Cc2ccc(O)cc2)NC(=O)[C@@H](NC(=O)[C@H](C)NC(=O)[C@H](CO)NC(=O)[C@H](CCCNC(=N)N)NC(=O)[C@@H](NC(=O)[C@H](Cc2ccc(O)cc2)NC(=O)[C@@H]2CCCN2)[C@@H](C)O)CSSC[C@@H](C(=O)NCC(=O)N[C@@H](CCCNC(=N)N)C(=O)N[C@@H](CCCNC(=N)N)C(=O)N[C@@H](Cc2ccc(O)cc2)C(=O)N[C@@H](CCCNC(=N)N)C(=O)N[C@H](C(=O)N[C@@H](CCCNC(=N)N)C(=O)N[C@@H](CCCCNC(=O)CCCC[C@@H]2SC[C@@H]3NC(=O)N[C@@H]32)C(=O)O)C(C)C)NC(=O)[C@H](C)NC(=O)[C@H](CCCNC(=N)N)NC(=O)CNC(=O)[C@H](CC(N)=O)NC(=O)[C@H](CCC(N)=O)NC(=O)[C@H](Cc2c[nH]c3ccccc23)NC1=O` [pAtPNP-A] (H-PYTRSACYGTQRETLVVGVKNNLWQNGRACGRRYRVRK(Biotin)-OH; disulfide 7-30; N-terminus and C-terminus assumed), for which, in the assay with CAT2, the “Identification of CAT2 by LC–MS/MS” value is reported as “CAT2 was identified by LC–MS/MS only in samples containing pAtPNP-A”.
Turning to “AtPNP-A: An A. thaliana PNP, termed AtPNP-A (At2g18660; Q9ZV52)”, the “Elevation of cGMP” value in the assay with cGMP was “rapid elevation of 3′,5′-cyclic guanosine monophosphate (cGMP)”.
